Data as given in ChEMBL document CHEMBL5442219.

Experiments:
Conditions in all cases: Compound concentration 10 µM
[1] = biological target: 5-hydroxytryptamine receptor 7 (Homo sapiens) (UniProt P34969)
[2] = biological target: 5-hydroxytryptamine receptor 6 (Homo sapiens) (UniProt P50406)
[3] = biological target: T1, Muscarinic acetylcholine receptor M4 (Homo sapiens) (UniProt P08173)
T1 sequence (whole entry): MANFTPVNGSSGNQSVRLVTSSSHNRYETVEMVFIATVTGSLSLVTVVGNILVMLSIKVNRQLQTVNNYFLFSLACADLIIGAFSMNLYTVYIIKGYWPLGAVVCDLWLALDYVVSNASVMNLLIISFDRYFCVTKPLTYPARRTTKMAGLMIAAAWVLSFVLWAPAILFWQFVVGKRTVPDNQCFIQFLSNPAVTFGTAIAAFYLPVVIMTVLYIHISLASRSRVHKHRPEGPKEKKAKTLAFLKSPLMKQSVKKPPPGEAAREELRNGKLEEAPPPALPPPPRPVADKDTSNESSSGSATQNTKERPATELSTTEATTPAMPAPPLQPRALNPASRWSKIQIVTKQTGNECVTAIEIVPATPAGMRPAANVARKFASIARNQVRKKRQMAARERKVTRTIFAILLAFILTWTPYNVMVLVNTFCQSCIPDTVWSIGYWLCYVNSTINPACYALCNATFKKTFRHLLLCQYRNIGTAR

[4] = biological target: Histamine H1 receptor (Homo sapiens) (UniProt P35367)
Histamine H1 receptor (Homo sapiens), sequence (P35367 whole entry): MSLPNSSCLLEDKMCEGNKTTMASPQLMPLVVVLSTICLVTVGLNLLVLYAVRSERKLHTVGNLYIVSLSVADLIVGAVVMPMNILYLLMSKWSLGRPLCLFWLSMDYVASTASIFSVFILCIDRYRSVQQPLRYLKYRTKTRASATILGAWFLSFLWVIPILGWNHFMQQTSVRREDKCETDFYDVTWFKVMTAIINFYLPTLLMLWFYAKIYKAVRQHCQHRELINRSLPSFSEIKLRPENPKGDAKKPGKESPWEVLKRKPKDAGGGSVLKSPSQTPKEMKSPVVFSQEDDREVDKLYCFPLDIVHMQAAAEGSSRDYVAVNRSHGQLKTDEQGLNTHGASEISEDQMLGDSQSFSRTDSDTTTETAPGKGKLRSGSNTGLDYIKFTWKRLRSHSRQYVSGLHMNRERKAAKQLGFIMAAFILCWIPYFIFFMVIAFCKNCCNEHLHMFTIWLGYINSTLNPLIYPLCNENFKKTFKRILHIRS

[5] = biological target: D(3) dopamine receptor (Homo sapiens) (UniProt P35462)
D(3) dopamine receptor (Homo sapiens), sequence (P35462 whole entry): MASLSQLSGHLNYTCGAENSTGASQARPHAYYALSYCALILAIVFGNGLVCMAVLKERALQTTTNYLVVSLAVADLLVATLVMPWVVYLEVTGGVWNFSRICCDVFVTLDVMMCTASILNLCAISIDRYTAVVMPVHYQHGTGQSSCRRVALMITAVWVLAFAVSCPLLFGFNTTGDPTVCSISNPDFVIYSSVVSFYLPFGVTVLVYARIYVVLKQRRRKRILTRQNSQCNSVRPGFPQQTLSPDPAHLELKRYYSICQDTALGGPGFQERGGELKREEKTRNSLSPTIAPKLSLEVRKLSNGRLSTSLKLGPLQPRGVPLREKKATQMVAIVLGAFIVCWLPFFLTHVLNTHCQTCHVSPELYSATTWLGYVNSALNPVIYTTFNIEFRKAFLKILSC

[6] = biological target: D(2) dopamine receptor (Homo sapiens) (UniProt P14416)
D(2) dopamine receptor (Homo sapiens), sequence (P14416 whole entry): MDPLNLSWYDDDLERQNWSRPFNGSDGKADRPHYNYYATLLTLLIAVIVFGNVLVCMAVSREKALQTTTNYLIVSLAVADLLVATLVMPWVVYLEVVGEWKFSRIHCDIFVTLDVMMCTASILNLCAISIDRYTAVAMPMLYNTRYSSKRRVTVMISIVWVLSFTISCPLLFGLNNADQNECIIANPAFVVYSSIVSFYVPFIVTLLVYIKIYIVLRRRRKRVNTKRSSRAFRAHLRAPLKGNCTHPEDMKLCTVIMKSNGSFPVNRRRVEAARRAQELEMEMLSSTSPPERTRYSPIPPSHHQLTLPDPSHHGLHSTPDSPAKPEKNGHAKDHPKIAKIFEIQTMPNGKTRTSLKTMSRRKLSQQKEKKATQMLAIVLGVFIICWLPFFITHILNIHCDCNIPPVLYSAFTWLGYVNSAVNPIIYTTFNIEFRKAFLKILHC

[7] = biological target: Sigma non-opioid intracellular receptor 1 (Homo sapiens) (UniProt Q99720)
Sigma non-opioid intracellular receptor 1 (Homo sapiens), sequence (Q99720 whole entry): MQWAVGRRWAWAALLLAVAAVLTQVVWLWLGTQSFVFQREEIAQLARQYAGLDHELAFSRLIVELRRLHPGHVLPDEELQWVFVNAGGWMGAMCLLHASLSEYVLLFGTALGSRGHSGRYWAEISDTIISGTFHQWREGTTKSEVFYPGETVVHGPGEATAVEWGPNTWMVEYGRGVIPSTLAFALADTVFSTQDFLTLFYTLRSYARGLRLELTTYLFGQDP

[8] = biological target: Kappa-type opioid receptor (Homo sapiens) (UniProt P41145)
Kappa-type opioid receptor (Homo sapiens), sequence (P41145 whole entry): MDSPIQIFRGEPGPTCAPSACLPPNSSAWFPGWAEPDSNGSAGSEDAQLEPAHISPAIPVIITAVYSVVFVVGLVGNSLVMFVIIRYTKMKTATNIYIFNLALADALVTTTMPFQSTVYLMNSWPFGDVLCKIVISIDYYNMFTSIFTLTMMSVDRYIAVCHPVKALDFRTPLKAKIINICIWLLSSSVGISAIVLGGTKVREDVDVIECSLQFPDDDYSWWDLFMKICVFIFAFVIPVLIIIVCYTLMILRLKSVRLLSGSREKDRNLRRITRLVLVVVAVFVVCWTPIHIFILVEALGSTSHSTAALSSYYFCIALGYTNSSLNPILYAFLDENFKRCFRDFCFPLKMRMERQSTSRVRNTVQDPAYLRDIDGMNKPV

[9] = biological target: T2, 5-hydroxytryptamine receptor 1A (Homo sapiens) (UniProt P08908)
T2 sequence (whole entry): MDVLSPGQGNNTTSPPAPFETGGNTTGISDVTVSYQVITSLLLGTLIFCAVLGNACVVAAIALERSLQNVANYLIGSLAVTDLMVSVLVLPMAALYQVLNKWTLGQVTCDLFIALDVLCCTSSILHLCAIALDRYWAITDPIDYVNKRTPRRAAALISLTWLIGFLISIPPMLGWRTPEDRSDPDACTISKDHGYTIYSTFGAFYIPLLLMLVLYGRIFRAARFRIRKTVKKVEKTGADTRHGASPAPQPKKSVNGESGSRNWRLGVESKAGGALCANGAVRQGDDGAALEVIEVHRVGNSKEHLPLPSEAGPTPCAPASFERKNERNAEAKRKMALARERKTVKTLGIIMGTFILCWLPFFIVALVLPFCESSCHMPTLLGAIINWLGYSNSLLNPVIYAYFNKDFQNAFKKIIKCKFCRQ

[10] = biological target: D(1A) dopamine receptor (Homo sapiens) (UniProt P21728)
[11] = biological target: Histamine H3 receptor (Homo sapiens) (UniProt Q9Y5N1)
[12] = biological target: D(1B) dopamine receptor (Homo sapiens) (UniProt P21918)
D(1B) dopamine receptor (Homo sapiens), sequence (P21918 whole entry): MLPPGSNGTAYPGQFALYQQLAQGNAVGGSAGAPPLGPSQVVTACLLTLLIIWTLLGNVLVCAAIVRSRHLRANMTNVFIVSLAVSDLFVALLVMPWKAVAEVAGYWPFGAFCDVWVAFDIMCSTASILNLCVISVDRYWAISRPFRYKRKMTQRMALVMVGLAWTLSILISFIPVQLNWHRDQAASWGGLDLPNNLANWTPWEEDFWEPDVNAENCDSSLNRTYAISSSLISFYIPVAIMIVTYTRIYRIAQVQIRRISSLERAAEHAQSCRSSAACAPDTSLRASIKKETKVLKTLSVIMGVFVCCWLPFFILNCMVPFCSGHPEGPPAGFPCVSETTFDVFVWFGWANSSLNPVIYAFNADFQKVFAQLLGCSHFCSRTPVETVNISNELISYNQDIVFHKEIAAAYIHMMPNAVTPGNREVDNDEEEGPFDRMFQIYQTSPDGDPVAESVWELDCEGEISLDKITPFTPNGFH

[13] = biological target: Beta-1 adrenergic receptor (Homo sapiens) (UniProt P08588)
Beta-1 adrenergic receptor (Homo sapiens), sequence (P08588 whole entry, looked up): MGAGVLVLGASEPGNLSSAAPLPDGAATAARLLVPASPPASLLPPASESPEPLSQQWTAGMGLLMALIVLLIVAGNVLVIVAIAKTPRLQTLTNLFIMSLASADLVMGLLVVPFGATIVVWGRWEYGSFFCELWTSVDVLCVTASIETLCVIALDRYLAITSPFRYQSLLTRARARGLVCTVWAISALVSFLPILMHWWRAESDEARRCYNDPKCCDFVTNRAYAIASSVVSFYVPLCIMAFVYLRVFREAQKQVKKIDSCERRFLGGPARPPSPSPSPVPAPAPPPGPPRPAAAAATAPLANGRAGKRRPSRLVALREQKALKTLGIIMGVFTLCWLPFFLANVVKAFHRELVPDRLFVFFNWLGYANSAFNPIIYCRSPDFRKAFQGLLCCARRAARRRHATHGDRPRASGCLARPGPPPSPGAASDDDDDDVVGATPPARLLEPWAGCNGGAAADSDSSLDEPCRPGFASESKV

[14] = biological target: T3, Alpha-2B adrenergic receptor (Homo sapiens) (UniProt P18089)
T3 sequence (whole entry): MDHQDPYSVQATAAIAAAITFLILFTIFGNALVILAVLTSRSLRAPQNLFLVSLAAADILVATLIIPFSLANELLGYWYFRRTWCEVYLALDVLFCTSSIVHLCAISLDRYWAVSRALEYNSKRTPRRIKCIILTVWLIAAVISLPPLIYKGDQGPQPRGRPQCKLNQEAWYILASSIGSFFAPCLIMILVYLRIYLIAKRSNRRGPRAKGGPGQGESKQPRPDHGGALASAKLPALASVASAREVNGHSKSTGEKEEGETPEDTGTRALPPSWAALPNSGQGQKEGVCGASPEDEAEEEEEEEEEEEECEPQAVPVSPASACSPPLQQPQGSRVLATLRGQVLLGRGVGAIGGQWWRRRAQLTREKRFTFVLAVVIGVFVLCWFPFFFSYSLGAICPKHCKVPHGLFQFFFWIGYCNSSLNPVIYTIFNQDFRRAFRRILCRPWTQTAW

[15] = biological target: Delta-type opioid receptor (Homo sapiens) (UniProt P41143)
[16] = biological target: Histamine H4 receptor (Homo sapiens) (UniProt Q9H3N8)
Histamine H4 receptor (Homo sapiens), sequence (Q9H3N8 whole entry): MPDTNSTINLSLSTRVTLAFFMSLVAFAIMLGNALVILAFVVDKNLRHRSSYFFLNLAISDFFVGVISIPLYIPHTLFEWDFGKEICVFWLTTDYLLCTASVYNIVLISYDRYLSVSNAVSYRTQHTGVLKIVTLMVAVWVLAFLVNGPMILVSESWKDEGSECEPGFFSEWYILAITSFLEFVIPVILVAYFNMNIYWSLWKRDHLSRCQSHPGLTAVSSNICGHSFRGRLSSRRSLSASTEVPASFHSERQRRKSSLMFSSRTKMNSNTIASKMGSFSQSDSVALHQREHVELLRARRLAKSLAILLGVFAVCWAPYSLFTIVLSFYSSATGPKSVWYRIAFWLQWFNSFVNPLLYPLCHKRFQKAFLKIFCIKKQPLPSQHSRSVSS

[17] = biological target: Sodium-dependent dopamine transporter (Homo sapiens) (UniProt Q01959)
Sodium-dependent dopamine transporter (Homo sapiens), sequence (Q01959 whole entry): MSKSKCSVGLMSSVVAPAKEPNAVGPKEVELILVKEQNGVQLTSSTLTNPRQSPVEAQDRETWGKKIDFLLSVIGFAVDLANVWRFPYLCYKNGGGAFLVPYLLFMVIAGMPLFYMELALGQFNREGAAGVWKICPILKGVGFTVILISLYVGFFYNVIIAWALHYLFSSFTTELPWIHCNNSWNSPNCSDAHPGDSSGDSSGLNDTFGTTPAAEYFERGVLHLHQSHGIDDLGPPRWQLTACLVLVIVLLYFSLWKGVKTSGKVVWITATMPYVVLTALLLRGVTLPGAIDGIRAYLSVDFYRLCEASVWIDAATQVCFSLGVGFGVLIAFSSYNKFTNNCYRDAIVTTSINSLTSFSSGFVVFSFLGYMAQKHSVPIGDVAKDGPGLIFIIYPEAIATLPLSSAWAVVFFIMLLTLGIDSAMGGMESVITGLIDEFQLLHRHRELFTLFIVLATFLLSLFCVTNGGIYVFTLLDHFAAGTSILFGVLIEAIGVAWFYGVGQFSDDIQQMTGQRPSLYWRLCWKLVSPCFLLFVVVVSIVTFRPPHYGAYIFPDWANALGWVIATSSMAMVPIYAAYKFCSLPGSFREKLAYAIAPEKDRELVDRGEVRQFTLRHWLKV

[18] = biological target: Sodium-dependent noradrenaline transporter (Homo sapiens) (UniProt P23975)
[19] = biological target: 5-hydroxytryptamine receptor 2A (Homo sapiens) (UniProt P28223)
[20] = biological target: T4, Alpha-1D adrenergic receptor (Homo sapiens) (UniProt P25100)
T4 sequence (whole entry): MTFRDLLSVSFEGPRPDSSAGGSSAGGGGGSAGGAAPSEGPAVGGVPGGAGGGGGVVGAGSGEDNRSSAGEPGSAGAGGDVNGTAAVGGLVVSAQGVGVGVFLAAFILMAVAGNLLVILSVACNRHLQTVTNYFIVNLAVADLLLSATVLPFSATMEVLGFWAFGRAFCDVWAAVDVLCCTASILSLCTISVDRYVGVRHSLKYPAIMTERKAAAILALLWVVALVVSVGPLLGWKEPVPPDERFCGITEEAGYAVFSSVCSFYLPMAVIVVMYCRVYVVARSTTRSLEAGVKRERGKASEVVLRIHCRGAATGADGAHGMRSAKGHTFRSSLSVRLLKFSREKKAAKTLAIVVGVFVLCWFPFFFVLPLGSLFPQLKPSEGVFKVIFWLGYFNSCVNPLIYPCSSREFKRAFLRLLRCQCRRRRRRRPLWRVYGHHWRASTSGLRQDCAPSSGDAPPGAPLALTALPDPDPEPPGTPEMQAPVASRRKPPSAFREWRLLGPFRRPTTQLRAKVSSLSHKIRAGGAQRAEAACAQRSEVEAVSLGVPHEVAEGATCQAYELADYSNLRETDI

5-hydroxytryptamine receptor 6 (Homo sapiens), sequence (P50406 whole entry): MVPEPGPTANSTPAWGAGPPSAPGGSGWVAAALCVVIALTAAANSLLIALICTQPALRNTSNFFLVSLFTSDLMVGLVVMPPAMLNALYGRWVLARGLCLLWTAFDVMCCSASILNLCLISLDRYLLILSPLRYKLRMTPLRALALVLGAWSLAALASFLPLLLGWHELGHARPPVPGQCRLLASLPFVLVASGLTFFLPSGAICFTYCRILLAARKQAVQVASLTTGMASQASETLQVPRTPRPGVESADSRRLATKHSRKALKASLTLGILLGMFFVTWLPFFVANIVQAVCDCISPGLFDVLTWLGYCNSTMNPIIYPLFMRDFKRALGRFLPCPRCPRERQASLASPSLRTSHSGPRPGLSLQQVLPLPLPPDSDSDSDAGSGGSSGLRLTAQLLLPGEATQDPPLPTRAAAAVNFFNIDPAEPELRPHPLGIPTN
5-hydroxytryptamine receptor 7 (Homo sapiens), sequence (P34969 whole entry): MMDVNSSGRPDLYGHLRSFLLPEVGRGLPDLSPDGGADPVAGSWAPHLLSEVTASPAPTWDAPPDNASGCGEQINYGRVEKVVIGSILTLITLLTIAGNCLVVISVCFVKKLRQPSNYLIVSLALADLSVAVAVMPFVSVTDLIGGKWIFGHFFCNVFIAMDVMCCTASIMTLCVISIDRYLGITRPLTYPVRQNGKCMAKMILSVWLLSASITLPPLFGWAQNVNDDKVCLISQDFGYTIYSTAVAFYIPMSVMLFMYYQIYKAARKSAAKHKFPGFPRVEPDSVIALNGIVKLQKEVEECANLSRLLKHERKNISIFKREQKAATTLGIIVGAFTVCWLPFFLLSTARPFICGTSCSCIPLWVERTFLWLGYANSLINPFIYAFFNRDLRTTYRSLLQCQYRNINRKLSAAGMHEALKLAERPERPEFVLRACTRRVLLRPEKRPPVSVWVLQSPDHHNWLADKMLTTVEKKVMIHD

SMILES | inhibition [1] [%] | inhibition [2] [%] | inhibition [3] [%] | inhibition [4] [%] | inhibition [5] [%] | inhibition [6] [%] | inhibition [7] [%] | inhibition [8] [%] | inhibition [9] [%] | inhibition [10] [%] | inhibition [11] [%] | inhibition [12] [%] | inhibition [13] [%] | inhibition [14] [%] | inhibition [15] [%] | inhibition [16] [%] | inhibition [17] [%] | inhibition [18] [%] | inhibition [19] [%] | inhibition [20] [%]
Cc1c(P(=S)(c2ccccc2)c2ccccc2)n2ccccc2[n+]1C/C=C/c1ccccc1 | 34.3 | 43.6 | 68.4 | 67.1 | 48.5 | 49 | 67.2 | 101 | 54.3 | 16.3 | 15 | 24.6 | 36.1 | 45.7 | 36.7 | 31 | 83.2 | 83.2 | 55.7 | 8.81
NCCc1cn(S(=O)(=O)c2c(Cl)nc3sccn23)c2ccccc12 | 66.9 | 99.3 | 16.1 | 52.1 | 32 | 42.1 | 78.7 | 32.8 | 16.6 | 41.2 | 55.7 | 38.9 | 44.4 | 47.2 | 6.57 | 11.2 | 67.9 | 84.1 | 94.2 | 38.2
O=C(O)c1cc(-c2ccc(C3CCNCC3)cc2)c2ccc(-c3ccc(C(F)(F)F)cc3)cc2c1 | 51.5 | 11.3 | -1.1 | 42.8 | 28.9 | 11.9 | 31.5 | 19.2 | 51.4 | 27 | 10.6 | 81 | 47 | 40.4 | 14 | -8.87 | 82.5 | 88 | 28.4 | 16.7
O=c1ccn([C@@H]2O[C@H](COP(=O)(O)OP(=O)(O)OP(=O)(O)O)[C@@H](O)[C@H]2O)c(=O)[nH]1 | 3.3 | 11.9 | -4.92 | -0.29 | 22.3 | 90.1 | 35.3 | 47.6 | 26.3 | 45.1 | 5.87 | 20.2 | -2.2 | 0.09 | -0.41 | 4.53 | -7.04 | 11 | 46.4 | 11.6
CN1CCC(C(=O)c2cccc(NC(=O)c3c(F)cc(F)cc3F)n2)CC1 | 52.8 | 11.4 | 27 | 16.4 | – | 26.2 | 81.6 | 69.2 | 4.22 | 15.1 | 3.79 | 73.7 | -2.95 | 20.8 | 1.97 | -0.15 | 42.1 | 23.5 | 1.42 | 6.55
Cc1cc(NC(=O)NCCN2CCC(O)(Cc3ccccc3)CC2)c2ccccc2n1 | 32 | 8.02 | 17.1 | 5.97 | 27.4 | 65.3 | 56.9 | 31.9 | -6.82 | 10.7 | 31 | 41.9 | 25.5 | 29.6 | 15.6 | 3.45 | 43.9 | 69.5 | 52.7 | 16.2
CN(C)C(=O)N[C@H]1CC[C@H](CCN2CCN(c3cccc(Cl)c3Cl)CC2)CC1 | 104 | 69.7 | 64 | 98.7 | – | 100 | – | 5.62 | 102 | 36.3 | 4.23 | -0.02 | 92.4 | 90.6 | 11.3 | 2.57 | 52.5 | 49.7 | 110 | 89.4
